Assays:
[1] = target: T1, Nuclear receptor ROR-beta (Homo sapiens, UniProt Q92753); experiment: Inverse agonist activity at human GAL4-fused RORb expressed in HEK293 cells after 5 hrs by luciferase reporter gene based transcriptional assay; format: cell-based
T1 sequence (Q92753 whole entry): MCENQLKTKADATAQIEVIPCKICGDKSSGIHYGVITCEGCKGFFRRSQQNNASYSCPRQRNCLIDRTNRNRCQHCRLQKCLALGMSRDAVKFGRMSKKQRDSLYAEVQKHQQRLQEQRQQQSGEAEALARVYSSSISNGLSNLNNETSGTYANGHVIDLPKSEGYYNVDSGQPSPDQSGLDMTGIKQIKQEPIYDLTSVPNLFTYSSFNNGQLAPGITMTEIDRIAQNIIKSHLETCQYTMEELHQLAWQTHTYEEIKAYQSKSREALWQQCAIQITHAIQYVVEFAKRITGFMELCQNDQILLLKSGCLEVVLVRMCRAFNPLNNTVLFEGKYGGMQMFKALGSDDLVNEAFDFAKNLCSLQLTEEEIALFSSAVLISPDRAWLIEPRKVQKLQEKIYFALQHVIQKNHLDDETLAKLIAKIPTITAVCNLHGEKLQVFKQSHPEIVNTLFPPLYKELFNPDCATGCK

[2] = target: T2, Nuclear receptor ROR-alpha (Homo sapiens, UniProt P35398); experiment: Inverse agonist activity at human GAL4-fused RORa expressed in HEK293 cells after 5 hrs by luciferase reporter gene based transcriptional assay; format: cell-based
T2 sequence (P35398 whole entry): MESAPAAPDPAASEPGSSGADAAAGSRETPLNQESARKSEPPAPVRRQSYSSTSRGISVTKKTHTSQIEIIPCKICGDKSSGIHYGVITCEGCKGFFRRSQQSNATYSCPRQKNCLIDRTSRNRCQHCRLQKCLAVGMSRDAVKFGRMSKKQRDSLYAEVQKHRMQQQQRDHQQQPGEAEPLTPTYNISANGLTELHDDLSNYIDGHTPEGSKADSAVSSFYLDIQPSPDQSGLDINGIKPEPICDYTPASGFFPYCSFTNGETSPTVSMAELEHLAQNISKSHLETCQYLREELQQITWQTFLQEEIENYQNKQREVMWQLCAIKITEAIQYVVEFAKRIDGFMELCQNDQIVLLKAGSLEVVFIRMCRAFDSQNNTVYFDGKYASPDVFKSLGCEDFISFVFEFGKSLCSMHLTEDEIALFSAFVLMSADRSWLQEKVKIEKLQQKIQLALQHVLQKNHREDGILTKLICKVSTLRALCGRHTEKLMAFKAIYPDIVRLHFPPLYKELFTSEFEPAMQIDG

[3] = target: T3, Oxysterols receptor LXR-alpha (Homo sapiens, UniProt Q13133); experiment: Inverse agonist activity at human GAL4-fused LXRalpha expressed in HEK293 cells assessed as inhibition of T0901317-induced transcriptional activity after 5 hrs by luciferase reporter gene assay; format: cell-based
T3 sequence (Q13133 whole entry): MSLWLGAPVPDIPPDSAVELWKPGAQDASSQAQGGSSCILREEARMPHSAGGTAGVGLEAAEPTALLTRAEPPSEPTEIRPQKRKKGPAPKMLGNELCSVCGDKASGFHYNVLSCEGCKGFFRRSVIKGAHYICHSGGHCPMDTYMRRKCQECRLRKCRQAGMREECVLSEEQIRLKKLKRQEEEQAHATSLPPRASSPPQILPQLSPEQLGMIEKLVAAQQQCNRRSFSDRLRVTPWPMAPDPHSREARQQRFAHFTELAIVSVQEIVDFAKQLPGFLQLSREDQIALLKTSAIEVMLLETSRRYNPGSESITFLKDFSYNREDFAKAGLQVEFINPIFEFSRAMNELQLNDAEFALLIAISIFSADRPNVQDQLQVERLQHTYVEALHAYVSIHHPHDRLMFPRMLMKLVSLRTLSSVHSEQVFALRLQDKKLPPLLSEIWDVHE

[4] = target: T4, Oxysterols receptor LXR-beta (Homo sapiens, UniProt P55055); experiment: Inverse agonist activity at human GAL4-fused LXRbeta expressed in HEK293 cells assessed as inhibition of T0901317-induced transcriptional activity after 5 hrs by luciferase reporter gene assay; format: cell-based
T4 sequence (P55055 whole entry): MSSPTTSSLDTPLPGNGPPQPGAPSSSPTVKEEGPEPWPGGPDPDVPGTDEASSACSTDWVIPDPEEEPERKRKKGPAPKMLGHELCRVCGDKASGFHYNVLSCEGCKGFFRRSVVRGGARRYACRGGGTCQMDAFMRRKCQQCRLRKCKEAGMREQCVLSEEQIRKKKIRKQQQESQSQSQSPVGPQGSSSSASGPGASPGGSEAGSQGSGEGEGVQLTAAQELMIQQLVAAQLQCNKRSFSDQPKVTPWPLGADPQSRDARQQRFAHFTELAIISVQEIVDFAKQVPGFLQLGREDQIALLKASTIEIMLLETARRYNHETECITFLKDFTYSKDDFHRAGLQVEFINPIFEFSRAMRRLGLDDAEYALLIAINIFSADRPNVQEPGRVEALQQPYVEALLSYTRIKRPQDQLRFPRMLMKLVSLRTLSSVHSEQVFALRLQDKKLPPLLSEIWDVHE

[5] = target: T5, Nuclear receptor ROR-gamma (Homo sapiens, UniProt P51449); experiment: Displacement of [3H2]25-hydroxycholesterol from human RORc-LBD after 3 hrs by scintillation counting
T5 sequence (P51449 whole entry): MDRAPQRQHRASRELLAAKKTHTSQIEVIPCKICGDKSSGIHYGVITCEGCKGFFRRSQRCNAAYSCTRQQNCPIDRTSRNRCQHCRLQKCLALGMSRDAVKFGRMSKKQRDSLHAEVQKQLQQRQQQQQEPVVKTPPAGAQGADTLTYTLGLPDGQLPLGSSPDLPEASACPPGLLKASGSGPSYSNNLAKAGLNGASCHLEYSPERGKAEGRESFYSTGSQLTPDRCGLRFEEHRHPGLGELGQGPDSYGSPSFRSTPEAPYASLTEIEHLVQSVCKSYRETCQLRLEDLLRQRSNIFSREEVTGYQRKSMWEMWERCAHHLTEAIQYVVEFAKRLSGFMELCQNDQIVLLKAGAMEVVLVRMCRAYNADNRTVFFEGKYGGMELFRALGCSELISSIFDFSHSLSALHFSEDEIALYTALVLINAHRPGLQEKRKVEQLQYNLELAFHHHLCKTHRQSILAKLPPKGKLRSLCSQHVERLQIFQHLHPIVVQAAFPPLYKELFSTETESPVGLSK

[6] = target: T5, Nuclear receptor ROR-gamma; experiment: Inverse agonist activity at an N-terminal 6xHis-GST-tag human RORc-LBD assessed as inhibition of recruitment of the SRC1 co-activator peptide after 3 hrs by time-resolved FRET assay; format: functional

SMILES | EC50 [1] | EC50 [2] | EC50 [3] | EC50 [4] | IC50 [5] | EC50 [6]
CC(C)CN(Cc1ccc(-c2cccc(S(C)(=O)=O)c2)s1)S(=O)(=O)Cc1ccccc1 | 5 µM | 4.2 µM | – | – | – | –
CC(C)CN(Cc1ccc(-c2ccc(S(C)(=O)=O)cc2)s1)S(=O)(=O)Cc1ccccc1 | 2.2 µM | 2.8 µM | 3.7 µM | 3.9 µM | – | –
CC(C)CN(Cc1ccc(-c2ccc(C#N)nc2)s1)S(=O)(=O)Cc1ccccc1 | – | – | – | – | > 10 µM | –
CC(C)CN(Cc1cnc(-c2ccc(S(C)(=O)=O)cc2)s1)S(=O)(=O)Cc1ccccc1 | – | – | – | – | > 10 µM | > 10 µM
CC(C)CN(Cc1cccc(-c2ccc(S(C)(=O)=O)cc2)c1)S(=O)(=O)Cc1ccccc1 | – | – | – | – | > 10 µM | > 10 µM
CC(C)CN(Cc1ccc(-c2ccc(NS(C)(=O)=O)cc2)cc1)S(=O)(=O)Cc1ccccc1 | 3.7 µM | 3.8 µM | 3.6 µM | 3.8 µM | – | –
CC(C)CN(Cc1ccc(-c2ccc(C(N)=O)cc2)cc1)S(=O)(=O)Cc1ccccc1 | > 10 µM | > 10 µM | > 10 µM | > 10 µM | – | –

— ChEMBL document CHEMBL3259641, “Identification of tertiary sulfonamides as RORc inverse agonists” (Bioorg Med Chem Lett, 2014)
